Test results reported in US20130096163A1, “Injectable dosage form of flupirtine” (AWD.PHARMA GMBH & CO. KG, priority 2010, published 2013).
Where two headings read alike, the source gives them in different places.

Assay: Solubility of flupirtine salts in water (stirring a suspension, filtration, HPLC-UV)
Format: physicochemical
Protocol: The solubility of the salt used is determined by stirring a suspension of a defined quantity of the corresponding salt for 30 minutes in a closed container in fully desalinated water at 25° C. The undissolved portion of the salt is filtered off, the filtrate is diluted to a suitable concentration range, and the flupirtine concentration of the solution determined using HPLC-UV (high performance liquid chromatography with UV-detection).
In a preferred embodiment of the invention, the flupirtine salt contained in the lyophilisate is selected from flupirtine mesilate, flupirtine besilate and/or flupirtine phosphate. Table 1shows the respective solubility of each of these flupirtine salts in water at 25° C. The solubility has been determined as described above.

Solubility [mg/mL] | Compound | Solubility (in fully desalinated water at 25° C., suspension stirred 30 minutes, filtrate by HPLC-UV) [mg/mL]
13.6 | Flupirtine phosphate | 
16.8 | Flupirtine mesilate | 
 | CCOC(=O)Nc1ccc(NCc2ccc(F)cc2)nc1N.O=S(=O)(O)c1ccccc1 [Flupirtine besilate] | 2.8
